From a melting point compilation (Tetko et al.; mined from patent text by program, amines drawn as free bases though some values may be those of a salt) come the findings set out here.

Where only a bound is given, the exact number is not on record here.

As to `Cc1ccc(C(F)(F)F)cc1-c1ccc(S(=O)(=O)N2c3ccccc3CC2C(=O)NCCOc2ccc(CC(=O)O)cc2)cc1` (centres undefined), the melting point – broadly, the temperature, or range, at which the solid turns liquid – lay within 80 to 84 °C.

`Cc1c(-c2ccc3oc(=O)n(C)c3c2)nc2c(OCc3ccccc3)cccn12` showed a melting point of 210 °C.

As to `CCOc1nn(-c2ccc(C(F)(F)F)cn2)cc1CCCOc1ccc(CCC(=O)O)c(OCc2ccccc2)c1`, the melting point lay within 128 to 130 °C.

`CN(C)S(=O)(=O)c1ccc(Oc2ccc([N+](=O)[O-])cc2)cc1`: the melting point lay in the range of 116 to 118 °C.

In turn, `N[C@@H](CO)C(=O)NCc1ccccc1` yielded a melting point of 76 to 80 °C.

In turn, `Cc1nn(-c2ccccc2)c(-c2ccc(Cl)cc2)c1CC(=O)O` showed a melting point of 174 to 177 °C.

Consider `O=C(COC(=O)CCCc1ccc(N(CCCl)CCCl)cc1)NCCCC(O)(P(=O)(O)O)P(=O)(O)O`, for which the melting point is over 260 °C.

For the molecule `C[C@]1(CN2CCN(C(=O)CSc3ccc(Cl)cc3)CC2)Cn2cc([N+](=O)[O-])nc2O1`, the melting point is 142 to 145 °C.

With `COc1cc(S(N)(=O)=O)cc(C(=O)Cl)c1OC`, the melting point is 153 °C.

Consider `CCOC=C(C#N)C(=O)c1cc(F)c(F)c(F)c1F`, for which the melting point lay within 99 to 101 °C.

Molecule `Cc1ccncc1-c1nc(-c2ccc(S(N)(=O)=O)cc2)cs1` registered a melting point of 219 °C.

`O=S(=O)(c1ccc(Cl)cc1)N1c2ccccc2CCC1c1ccc(CN2CCSCC2)cc1` (centres undefined) yielded a melting point of 134 to 136 °C.

Regarding `CCc1cnc2ccnn2c1O`, the melting point was 247 to 248 °C.

The molecule `CN(Cc1ccc2c(Br)c(OCc3nnn[nH]3)ccc2c1)C(=O)c1cn(Cc2ccccc2)c2ccccc12` showed a melting point of 197 to 198 °C.

`CC(=O)Nc1nc(Cl)c(NC=O)c(Cl)n1`: the melting point lay in the range of 189 to 193 °C.

With `CCCCc1nc(C(=O)O)c(C(=O)O)[nH]1`, the melting point lay within 261 to 263 °C.

`Cc1nn(C)c(Cl)c1S(=O)(=O)N1CCC2(CC1)CSC1=C(O2)c2ccccc2C(=O)C1=O` showed a melting point of 247 to 249 °C.

In turn, `CCCCS(=O)(=O)NC(=O)N1CC1C#N` (centres undefined) displayed a melting point of 80 to 85 °C.

In the case of `CS(=O)(=O)c1ccc(-c2oc3ccccc3c(=O)c2-c2ccc(Br)cc2)cc1`, the melting point fell in the range of 168 to 170 °C.

Turning to `Cc1cccc(NCCC(N)=S)c1C`, the melting point was 116 to 118 °C.

In the case of `COCC#Cc1cc(F)c2ncc(C(=O)NCc3ccc(Cl)cc3)c(O)c2c1`, the melting point fell in the range of 222 to 224 °C.

Molecule `O=C1c2ccccc2C(=O)N1CCCCCCN1CCC(C2(c3ccc(F)cc3)OCCO2)CC1` showed a melting point of 72 to 76 °C.

The molecule `O=C1OC(=O)c2c(Cl)c(Sc3ccccc3)c(Sc3ccccc3)c(Cl)c21` registered a melting point of 204 to 207 °C.

As to `CC(=Cc1ccc(N(C)C)cc1C)[N+](=O)[O-]`, the melting point lay in the range of 75 to 76 °C.

Take `Cc1cccc(-c2nc3cccnn3c2-c2ccnc(NC3CCCC3)c2)c1`: the melting point was in the range of 130 to 131 °C.

Consider `CCOC(=O)c1cnc2c(c1Cl)CCCCCC2`, for which the melting point lay in the range of 33 to 36 °C.

The molecule `CCC#CCOc1ccc(/C=C/C(=O)Nc2ccccc2C(=O)O)cc1OC` registered a melting point of 186 °C.

`CC1CCC(Nc2ccccc2)c2ncc(C(=O)O)c(=O)n21` (centres undefined): the melting point was in the range of 198 to 199 °C.

In turn, `CCc1nn2ccc3oc(C)cc3c2c1CO` displayed a melting point of 127 to 129 °C.

Consider `O=C(O)c1c[nH]c(=S)n1C1Cc2cc(F)c(F)cc2C1`, for which the melting point was 233 to 234 °C.

Molecule `c1cc2c3c(c1)[C@@H]1CCC[C@@H]1N3CCNC2` displayed a melting point of 57 to 59 °C.

Take `COC(C)C(=O)Nc1ccc(C2=NNC(=O)CC2C)cc1` (centres undefined): the melting point fell in the range of 193 to 194 °C.

Molecule `COC(=O)[C@H](Cc1ccc([N+](=O)[O-])cc1)NC(=S)C1(CCCCS(C)(=O)=O)CCC1` yielded a melting point of 150 to 152 °C.

Molecule `O=C(NCc1cccs1)C1(c2ccc(Cl)cc2)CCCC1` gave a melting point of 119 to 120 °C.

With `COC(=O)c1ccc(O)c(C(=O)OC)c1`, the melting point was 93 to 94 °C.

Regarding `O=C1C(c2ccccc2)c2ccccc2SN1c1ccccc1O` (centres undefined), the melting point was 165 to 168 °C.

Consider `Cc1sc2c(Br)c3ccccc3c(C3=CC(Br)([N+](=O)[O-])C(OC(Cc4ccccc4)C(=O)O)C=C3)c2c1C` (centres undefined), for which the melting point is 243 to 245 °C.

`Cc1cn(C(C)C(=O)N(C)C)nc1-c1ccco1` (centres undefined) yielded a melting point of 93 to 95 °C.

The molecule `COc1ccc2c(c1)N(CC(=O)O)C(=O)C(N=[N+]=[N-])CC2` (centres undefined) came in with a melting point of 145 to 147 °C.

In the case of `Cc1cccc(NC(=O)NC2N=C(c3ccccc3F)c3ccccc3N(Cc3cc(C(C)(C)C)ccn3)C2=O)c1` (racemic), the melting point lay within 142 to 144 °C.

`CC(C)Oc1ccc2ccc(N)nc2n1` returned a melting point of 170 °C.

With `NC12CC=CCC1CCc1ccc(O)cc12` (centres undefined), the melting point lay in the range of 156 to 161 °C.

Turning to `Nc1ncnn1C(=S)NC1CCCCC1`, the melting point lay within 168 to 170 °C.

Turning to `CCn1c(=O)n(CCCCC(C)=O)c(=O)c2c1ncn2Cc1ccccc1`, the melting point was 123 to 125 °C.

Take `CCOC(=O)Cn1c2c(c3c(Cl)cc(Cl)cc31)CCN(C(=O)OC(C)(C)C)CC2`: the melting point lay in the range of 144 to 147 °C.

With `O=C(NCc1ccc(Cl)cc1)c1cc(F)c2cccnc2c1O`, the melting point was 184 to 185 °C.

The molecule `O=c1nc(N2CCOCC2)ccn1C1OC(CO)C(O)C1O` (centres undefined) registered a melting point of 106 to 108 °C.

For `Cn1c(=O)oc2c(O)cccc21`, the melting point lay within 209 to 211 °C.

`CNC(=O)COC(=O)N1CCN(CCOc2ccc(Cl)cc2)CC1` yielded a melting point of 159 to 161 °C.

Take `CCOC(=O)c1ccc2c(c1)Cc1ccc(C(=O)OCC)cc1O2`: the melting point was 156 to 158 °C.

`COC(=O)Nc1nc2ccc(S(=O)c3ccccc3)cn2c1Br` (centres undefined) returned a melting point of 150 to 152 °C.

Molecule `CCNC(=NS(=O)(=O)c1ccc(N)cc1)N1CC2(C=N1)CCCC2` yielded a melting point of 141 to 142 °C.

In the case of `O=Cc1cn(Cc2ccc(OCc3coc(-c4ccccc4)n3)cc2)nc1-c1cccs1`, the melting point is 153 to 154 °C.

The molecule `O=C(O)CCCCCCc1cn(-c2cccnc2)c2ccccc12` came in with a melting point of 120 to 122 °C.

Regarding `CCOC(=O)c1c(C)cc(NC=O)c(C(=O)O)c1C`, the melting point lay within 146 to 148 °C.

On to `Nc1ccc(Oc2ccccc2-c2ccccc2Oc2ccc(N)c(N)c2)cc1N`, for which the melting point was 172 to 174 °C.

As for `CC(=O)Oc1cc(C(=O)Cl)cc(OC(C)=O)c1OC(C)=O`, the melting point lay within 108 to 110 °C.

`CCn1ccc(Nc2cc(Br)cn(C)c2=O)n1` returned a melting point of 165 to 167 °C.

The molecule `CCCCS(=O)(=O)N1CCC(c2ccc(O)cc2O)CC1` showed a melting point of 182 to 183 °C.

In turn, `CS(=O)c1cccc(CNC(=O)c2nc3scc(COCc4ccc(C(=O)O)cc4)c3c(=O)[nH]2)c1` (centres undefined) displayed a melting point of 227 to 228 °C.

The molecule `CCCCOc1cc(CCC(=O)O)ccc1-c1cccc(CN(C)C(=O)c2ccccc2)c1` came in with a melting point of 103 to 105 °C.

Turning to `S=C(NCCc1ccccn1)NN=C(CCCCl)c1ccccc1`, the melting point is 126 to 129 °C.

`CCOC(=O)CCc1ccc2c(c1)nc(N)c1nc(CC)n(CC3CCOCC3)c12` yielded a melting point of 172 to 173 °C.

As to `CCCn1nnn(-c2cc(O)c(F)cc2F)c1=O`, the melting point was in the range of 65 to 67 °C.

Consider `CCN(c1ccc(C(F)(F)F)cc1)C1CCN(c2ccc(OC[C@H]3CCn4cc([N+](=O)[O-])nc4O3)cc2)CC1`, for which the melting point was 206 °C.

For `O=C(O)c1cc(S(=O)(=O)N2CCC(CCl)CC2)ccc1Cl`, the melting point lay within 175 to 177 °C.

Consider `CC(C)CCc1c(-c2ccc(S(C)(=O)=O)c(F)c2)cnn(-c2ccc(F)c(F)c2)c1=O`, for which the melting point was 119 to 121 °C.

The molecule `Cc1cnc2c(c1-c1ccccc1)C(=O)N(Cc1cc(C(F)(F)F)cc(C(F)(F)F)c1)CCN(C)C2=O` returned a melting point of 203 to 205 °C.

The molecule `CN1CCN(CC(O)COc2cccc3ccccc23)CC1` (centres undefined) showed a melting point of 73 to 74 °C.

In the case of `O=C(O)c1cc2sc3sccc3c2s1`, the melting point amounted to 276 °C.

As to `O=CNNC(=S)Nc1ccccc1F`, the melting point lay within 148 to 149 °C.

`O=C1Nc2ccccc2Nc2ncccc21` returned a melting point of 295 to 296 °C.

`CCc1cn(C2CC(O)C(CNC(=O)C(C)Sc3ccc(Cl)cc3Cl)O2)c(=O)[nH]c1=O` (centres undefined) displayed a melting point of 218 to 220 °C.

As to `c1cc(-c2nc(COC3CCCCO3)no2)sc1CN1CCCCCC1` (centres undefined), the melting point lay within 79 to 81 °C.

As for `CC(C)(C)C(O)CN1CCC(CCC(=O)c2cc(Cl)c(N)[nH]c2=O)CC1` (centres undefined), the melting point is 211 °C.

In the case of `NC(=O)NC(=O)NCc1ccc(CNC(=O)[C@@H](CCCNC(N)=N[N+](=O)[O-])NC(=O)C(c2ccccc2)c2ccccc2)cc1`, the melting point was in the range of 214 to 218 °C.

The molecule `C[C@H](NC(=O)c1c[nH]c2ncc(-c3ccc(C(=O)NCc4ccccc4)s3)nc12)C(C)(C)C` displayed a melting point of 225 to 226 °C.

`Cc1ccc(-c2ccc3c(c2)C=C(C(=O)Nc2ccc(CS(=O)(=O)C4CCCCC4)cc2)CCO3)cc1`: the melting point lay in the range of 250 to 251 °C.

As to `Cc1ccccc1C(=O)Nc1ccc(C(=O)N2CCCC(N)c3ccccc32)cc1` (centres undefined), the melting point was in the range of 198 to 200 °C.

As for `Oc1cccc(O)c1Cl`, the melting point is 97 °C.

In the case of `N#Cc1ccc(N2CCC(CCCO)CC2)c2ccccc12`, the melting point fell in the range of 114 to 115 °C.

Take `CC(c1ccccc1)c1ccc(-c2cnn3c(O)ncnc23)cc1` (centres undefined): the melting point was in the range of 291 to 293 °C.

As to `NC(N)=Nc1nc(-c2cccc(CNC=O)n2)cs1`, the melting point was in the range of 192 to 193 °C.

In turn, `CON(C)C(=O)c1cc2sc(C)c(N(C)S(=O)(=O)c3cccs3)c2[nH]1` displayed a melting point of 187 °C.

In turn, `Cc1oc(-c2ccco2)nc1COc1ccc(COc2ccccc2CC(=O)O)cc1` registered a melting point of 167 to 168 °C.

`N#Cc1nn(-c2c(Cl)cc(C(F)(F)F)cc2Cl)cc1C(=O)C(F)(F)F`: the melting point lay within 124 to 125 °C.

As for `COc1cc(-c2ccccc2)n(-c2ccc(C)cc2)c1-c1ccccc1`, the melting point lay in the range of 157 to 158 °C.

For the molecule `CCOC(=O)c1cc(OCN2C(=O)c3c(C(C)C)cc(OC)cc3S2(=O)=O)n(-c2ccccc2)n1`, the melting point lay in the range of 170 to 171 °C.

Molecule `OC(c1ccccc1)(c1cccc(Cl)c1)c1ncc[nH]1` (centres undefined) gave a melting point of 174 to 175 °C.
